Assay results as given in patent US20020183313A1, “1,4-benzodiazepinones and their uses as CCK antagonists” (Fujisawa Pharmaceutical Co., Ltd., priority 1996, published 2002).

melting point | Compound
137.9 to 141 °C | Cc1cccc(NC(=O)NC2N=C(C=O)c3cccc(C)c3N(CC(=O)N3CCCCCCC3)C2=O)c1 (racemic) [71-3(2), N-[(3RS)-1-(azacyclooctan-1-yl)carbonylmethyl-2,3-dihydro-5-formyl-9-methyl-2-oxo-1H-1,4-benzodiazepin-3-yl]-N′-(3-methylphenyl)urea]
150.1 to 155.5 °C | CC1=NC(NC(=O)Nc2cccc(C)c2)C(=O)N(CC(=O)C2CCCC2)c2c(C)cccc21 (racemic) [Example 65, N-[(3RS)-1-Cyclopentylcarbonylmethyl-2,3-dihydro-5,9-dimethyl-2-oxo-1H-1,4-benzodiazepin-3-yl]-N′-(3-methylphenyl)urea]
151.4 to 174.2 °C (dec.) | Cc1cccc2c1N(CC(=O)OC(C)(C)C)C(=O)C(NC(=O)Nc1cccc(-c3nnn[nH]3)c1)N=C2c1ccccc1F (racemic)
152.3 to 154.8 °C | Cc1cccc(NC(=O)NC2N=C(CC(C)C)c3cccc(C)c3N(CC(=O)C3CCCCC3)C2=O)c1 (racemic) [Example 73, N-[(3RS)-1-Cyclohexylcarbonylmethyl-2,3-dihydro-5-isobutyl-9-methyl-2-oxo-1H-1,4-benzodiazepin-3-yl]-N′-(3-methylphenyl)urea]
192.8 to 203.9 °C | Cc1cccc2c1N(CC(=O)N1CC3CCC(CC3)C1)C(=O)C(NC(=O)Nc1cccc(O)c1)N=C2c1ccccc1F (racemic)
198.9 to 200.7 °C | Cc1cccc2c1N(C)C(=O)C(NC(=O)Nc1cccc(-c3nnn[nH]3)c1)N=C2C1CCCCC1 (racemic) [17(1), N-[(3RS)-5-Cyclohexyl-2,3-dihydro-1,9-dimethyl-2-oxo-1H-1,4-benzodiazepin-3-yl]-N′-[3-(tetrazol-5-yl)phenyl]urea]
177.7 to 179.2 °C | Cc1cccc(NC(=O)NC2N=C(C3CC3)c3cccc(C)c3N(CC(=O)N3CCCCCCC3)C2=O)c1 (racemic)
195 to 218.4 °C (dec.) | Cc1cccc2c1N(CC(=O)C13CC4CC(CC(C4)C1)C3)C(=O)C(NC(=O)Nc1cccc(-c3nnn[nH]3)c1)N=C2c1ccccc1F (racemic)
212.2 to 222.1 °C | CC(C)c1cccc2c1N(CC(=O)N1CC3CCC(CC3)C1)C(=O)C(NC(=O)Nc1cccc(-c3nnn[nH]3)c1)N=C2c1ccccc1F (racemic)
189.9 to 192.8 °C | Cc1cccc(NC(=O)NC2N=C(C(C)C)c3cccc(C)c3N(CC(=O)N3CC4CCC(CC4)C3)C2=O)c1 (racemic)
196 to 199 °C | Cc1cccc2c1N(CC(=O)N1CC3CCC(CC3)C1)C(=O)C(NC(=O)Nc1cccc(C=NO)c1)N=C2c1ccccc1F (racemic)
168.2 to 179.2 °C | Cc1cccc2c1N(Cc1c[nH]cn1)C(=O)C(NC(=O)Nc1cccc(-c3nnn[nH]3)c1)N=C2C1CCCCC1 (racemic) [Example 49, N-[(3RS)-5-Cyclohexyl-2,3-dihydro-1-(imidazol-4-yl)methyl-9-methyl-2-oxo-1H-1,4-benzodiazepin-3-yl]-N′-[3-(tetrazol-5-yl)phenyl]urea]
172 to 180.5 °C | O=C(Nc1cccc(-c2nnn[nH]2)c1)NC1N=C(c2ccccc2F)c2cccc(Cl)c2N(CC(=O)N2CC3CCC(CC3)C2)C1=O (racemic)
243.4 to 244.4 °C | CC1=NC(NC(=O)Nc2cccc(C)c2)C(=O)N(CC(=O)NC(C)(C)C)c2c(C)cccc21 (racemic) [48-3(11), N-[(3RS)-2,3-Dihydro-5,9-dimethyl-1-(N-tert-butylamino-carbonylmethyl)-2-oxo-1H-1,4-benzodiazepin-3-yl]-N′-(3-methylphenyl)urea]
226.9 to 228.1 °C | CC1=NC(NC(=O)Nc2cccc(C)c2)C(=O)N(CC(=O)N(CC(C)C)CC(C)C)c2c(C)cccc21 (racemic) [48-3(15), N-[(3 RS)-2,3-Dihydro-1-(N,N-diisobutylamino)carbonylmethyl-5,9-dimethyl-2-oxo-1H-1,4-benzodiazepin-3-yl]-N′-(3-methylphenyl)urea]
172 to 174.4 °C | Cc1cccc(NC(=O)NC2N=C(C3CC3)c3cccc(C)c3N(CC(=O)N3CC4CCC(CC4)C3)C2=O)c1 (racemic)
173.5 to 189.8 °C | CC(=O)CN1C(=O)C(NC(=O)Nc2cccc(-c3nnn[nH]3)c2)N=C(c2ccccc2F)c2cccc(C)c21 (racemic)
150.8 to 152.1 °C | CC1=NC(NC(=O)Nc2cccc(C)n2)C(=O)N(CC(=O)N2CC3CCC(CC3)C2)c2c(C)cccc21 (racemic)
179.6 to 181.2 °C | CC1=NC(NC(=O)Nc2cccc(C)c2)C(=O)N(CC(=O)C(C)(C)C)c2c(C)cccc21 (racemic) [Example 41, N-[(3RS)-2,3-Dihydro-5,9-dimethyl-1-tert-butylcarbonylmethyl-2-oxo-1H-1,4-benzodiazepin-3-yl]-N′-(3-methylphenyl)urea]
229.7 to 231 °C | CCOC(=O)CN1C(=O)C(NC(=O)Nc2cccc(C)c2)N=C(C)c2cccc(C)c21 (racemic) [Example 48-1, N-[(3RS)-2,3-Dihydro-1-ethoxycarbonylmethyl-5,9-dimethyl-2-oxo-1H-1,4-benzodiazepin-3-yl]-N′-(3-methylphenyl)urea]
225 to 229 °C | CC1=NC(NC(=O)Nc2cccc(C)c2)C(=O)N(Cc2ncccc2C)c2ccccc21 (racemic) [8(1), N-[(3RS)-2,3-dihydro-5-methyl-1-(3-methylpyridin-2-yl)methyl-2-oxo-1H-1,4-benzodiazepin-3-yl]-N′-(3-methylphenyl)urea]
176.9 to 179.1 °C | CC1=NC(NC(=O)Nc2cccc(C)c2)C(=O)N(CC(=O)N2CC3CCC(CC3)C2)c2c(C)cccc21 (racemic)
216.5 to 218.7 °C | CC1=NC(NC(=O)Nc2cccc(C)c2)C(=O)N(CC(=O)N2CC3CCC(CC3)C2)c2c1cccc2N(C)C.Cl (racemic)

Further lines, the compound ahead of its results:

Compound | melting point
Cc1cccc(NC(=O)NC2N=C(c3ccccc3F)c3cccc(C(C)C)c3N(CC(=O)N3CC4CCC(CC4)C3)C2=O)c1 (racemic) | 183.3 to 186.8 °C
CC1=NC(NC(=O)Nc2cccc(C)c2)C(=O)N(CC(=O)C2CCCCCC2)c2c(C)cccc21 (racemic) [Example 63, N-[(3RS)-1-Cycloheptylcarbonylmethyl-2,3-dihydro-5,9-dimethyl-2-oxo-1H-1,4-benzodiazepin-3-yl]-N′-(3-methylphenyl)urea] | 171.3 to 174.6 °C
CCOC(=O)C=CC1=NC(NC(=O)Nc2cccc(C)c2)C(=O)N(CC(=O)N2CCCCCCC2)c2c(C)cccc21 (racemic) [75(1)-1, N-[(3RS)-1-(azacyclooctan-1-yl)carbonylmethyl-2,3-dihydro-5-((EZ)-2-(ethoxycarbonyl)ethenyl)-9-methyl-2-oxo-1H-1,4-benzodiazepin-3-yl]-N′-(3-methylphenyl)urea] | 175.2 to 177.7 °C
O=C(Nc1cccc(-c2nnn[nH]2)c1)NC1N=C(CC2CCCCC2)c2ccccc2N(CC(=O)N2CC3CCC(CC3)C2)C1=O (racemic) | 218 to 222 °C (dec.)
CC1=NC(NC(=O)Nc2cccc(C)c2)C(=O)N(CC(=O)c2ccccc2C)c2c(C)cccc21 (racemic) [Example 37, N-[(3RS)-2,3-Dihydro-5,9-dimethyl-1-(2-methylphenacyl)-2-oxo-1H-1,4-benzodiazepin-3-yl]-N′-(3-methylphenyl)urea] | 128.4 to 136.2 °C
CC1=NC(NC(=O)Nc2cc(C)ccn2)C(=O)N(CC(=O)N2CC3CCC(CC3)C2)c2c(C)cccc21 (racemic) | 152 to 154.1 °C
CC(=O)OCCN1C(=O)C(NC(=O)Nc2cccc(-c3nnn[nH]3)c2)N=C(C2CCCCC2)c2cccc(C)c21 (racemic) [Example 21-1, N-[(3RS)-1-(2-Acetoxyethyl)-5-cyclohexyl-2,3-dihydro-9-methyl-2-oxo-1H-1,4-benzodiazepin-3-yl]-N′-[3-(tetrazol-5-yl)phenyl]urea] | 165.2 to 168.4 °C
CCC1=NC(NC(=O)Nc2cccc(C)c2)C(=O)N(CC(=O)N2CC3CCC(CC3)C2)c2ccccc21 (racemic) | 115 to 120 °C
CCC1=NC(NC(=O)Nc2cccc(C)c2)C(=O)N(CC(=O)N2CCCCCCC2)c2c(C)cccc21 (racemic) [Example 66, N-[(3RS)-1-(Azacyclooctan-1-yl)carbonylmethyl-2,3-dihydro-5-ethyl-9-methyl-2-oxo-1H-1,4-benzodiazepin-3-yl]-N′-(3-methylphenyl)urea] | 189 to 189.5 °C
Cc1cccc(NC(=O)NC2N=C(C3CCCCC3)c3cccc(C)c3N(CC(=O)C3CCCCC3)C2=O)c1 (racemic) [Example 54, N-[(3RS)-5-Cyclohexyl-1-cyclohexylcarbonylmethyl-2,3-dihydro-9-methyl-2-oxo-1H-1,4-benzodiazepin-3-yl]-N′-(3-methylphenyl)urea] | 159.3 to 169.6 °C
Cc1ccccc1C(=O)CN1C(=O)C(NC(=O)Nc2cccc(-c3nnn[nH]3)c2)N=C(C2CCCCC2)c2cccc(C)c21 (racemic) [24(1), N-[(3RS)-5-Cyclohexyl-9-methyl-2,3-dihydro-1-(2-methylphenacyl)-2-oxo-1H-1,4-benzodiazepin-3-yl]-N′-[3-(tetrazol-5-yl)phenyl]urea] | 165 to 176.6 °C
CSc1cccc(NC(=O)NC2N=C(C(C)C)c3ccccc3N(CC(=O)N3CC4CCC(CC4)C3)C2=O)c1 (racemic) | 134 to 135 °C
Cc1cccc(NC(=O)NC2N=C(C(C)C)c3cccc(C)c3N(CC(=O)N3CCCCCCC3)C2=O)c1 (racemic) [Example 67, N-[(3RS)-1-(Azacyclooctan-1-yl)carbonylmethyl-2,3-dihydro-5-isopropyl-9-methyl-2-oxo-1H-1,4-benzodiazepin-3-yl]-N′-(3-methylphenyl)urea] | 131.7 to 132.8 °C
CCCCC1=NC(NC(=O)Nc2cccc(C)c2)C(=O)N(CC(=O)N2CC3CCC(CC3)C2)c2ccccc21 (racemic) | 121 to 123 °C
CC1=NC(NC(=O)Nc2cccc(C)c2)C(=O)N(CC(=O)C2CCCCCCC2)c2c(C)cccc21 (racemic) [Example 72, N-[(3RS)-1-Cyclooctylcarbonylmethyl-2,3-dihydro-5,9-dimethyl-2-oxo-1H-1,4-benzodiazepin-3-yl]-N′-(3-methylphenyl)urea] | 162.9 to 164.4 °C
